By IC50 is commonly meant the midpoint of a concentration-inhibition curve.

For 23 molecules, IC50 results are on record in patent US10464927B2, “2,4-disubstituted pyrimidines as CDK inhibitors” (Shanghai Xunhe Pharmaceutical Technology Co. Ltd., priority 2016, dated 2019).

One assay concerns the target CDK6 (Homo sapiens (Human), UniProt Q00534). The assay can be described thus: CDK6 protein kinase activity, Caliper mobility shift assay. The assay is classed as biochemical. The following applies: GST-CDK6(1-326 end), substrate Peptide FAM-P8, 28° C. for 3 h. As to the method: (§1) Activity Assay: The CDK6 protein kinase activity was measured using the Caliper mobility shift assay (see J. Biomol. Screen, 2009, PP31). The test compound was dissolved in DMSO and diluted with a kinase buffer solution (20 mM HEPES-pH 7.5, 0.01% Triton X-100, 10 mM MgCl2, 2 mM DTT) and 5 μL of compound at 5-fold final concentration of reaction dissolved in 10% DMSO was added in a 384-well plate. The compound-free control well was 5 μL of 10% DMSO, and the no-activity control well was 5 μL of kinase buffer. 10 μL of a 2.5-fold diluted CDK6 enzyme solution (GST-CDK6(1-326 end)) was added and incubated at room temperature for 10 min, and then 10 μL of the 2.5-fold diluted substrate solution Peptide FAM-P8 was added. The reaction was stopped by adding 25 μL of stop solution after incubation at 28° C. for 3 h, and the conversion rate data was read on a Caliper EZ Reader II (Caliper Life Sciences) and the conversion rate was converted to inhibition rate data according to above method. Among them, the inhibition rate %=(max−conversion)/(max−min)×100%.

In a further assay the target is CDK4 (Homo sapiens (Human), UniProt P11802). The assay can be described thus: CDK4 protein kinase activity, Caliper mobility shift assay. In kind it is biochemical. The following applies: GST-CDK4(1-303 end), substrate Peptide FAM-P8, 28° C. for 3 h. As to the method: as §1, with “activity assay:” for “Activity Assay:”, “CDK4” for “CDK6”, “(GST-CDK4(1-303” for “(GST-CDK6(1-326”
Sequence of CDK4 (P11802 whole entry): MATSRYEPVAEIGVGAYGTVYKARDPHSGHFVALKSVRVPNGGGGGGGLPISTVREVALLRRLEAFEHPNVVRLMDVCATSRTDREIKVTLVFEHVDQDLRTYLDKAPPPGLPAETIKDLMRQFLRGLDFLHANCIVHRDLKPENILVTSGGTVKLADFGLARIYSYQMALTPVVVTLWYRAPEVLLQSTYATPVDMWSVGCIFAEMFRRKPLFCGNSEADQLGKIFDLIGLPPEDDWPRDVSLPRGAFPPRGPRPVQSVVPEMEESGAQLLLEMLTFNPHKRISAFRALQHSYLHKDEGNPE
Sequence of CDK4 (P30281 whole entry partner): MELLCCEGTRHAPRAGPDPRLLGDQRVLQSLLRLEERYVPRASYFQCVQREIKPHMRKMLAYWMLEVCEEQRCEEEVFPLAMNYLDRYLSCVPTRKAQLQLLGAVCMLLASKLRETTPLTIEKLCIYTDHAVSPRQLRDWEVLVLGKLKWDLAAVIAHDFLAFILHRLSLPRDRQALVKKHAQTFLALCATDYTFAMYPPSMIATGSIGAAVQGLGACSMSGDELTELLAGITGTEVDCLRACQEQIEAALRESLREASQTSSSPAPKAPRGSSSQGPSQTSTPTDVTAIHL

The structures appear in SMILES notation.

Sequence of CDK6 (Q00534 whole entry): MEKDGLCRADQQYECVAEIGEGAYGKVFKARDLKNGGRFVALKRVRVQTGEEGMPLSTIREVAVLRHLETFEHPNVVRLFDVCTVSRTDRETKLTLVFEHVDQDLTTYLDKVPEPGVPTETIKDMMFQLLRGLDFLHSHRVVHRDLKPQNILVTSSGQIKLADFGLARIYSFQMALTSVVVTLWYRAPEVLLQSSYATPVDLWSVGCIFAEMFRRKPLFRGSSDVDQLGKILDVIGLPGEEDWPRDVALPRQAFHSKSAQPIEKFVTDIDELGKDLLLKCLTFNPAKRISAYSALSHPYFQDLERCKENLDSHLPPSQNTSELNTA
Sequence of CDK6 (P30281 whole entry partner): as the sequence (P30281 whole entry partner) above

For `CCN1CCN(Cc2ccc(Nc3ncc(F)c(-c4ccc5nnc(C(C)=O)n5c4)n3)nc2)CC1` [Compound I-35, N-(5-(4-ethylpiperazine-1-methyl)-pyridin-2-yl)-5-fluoro-4-(3-acetyl-[1,2,4]triazolo[4,3-a]pyridin-6-yl)pyrimidin-2-amine], the IC50 on CDK6 and on CDK4 was 20 to 100 nM in each case.
As to `CCN1CCN(Cc2ccc(Nc3ncc(F)c(-c4ncnc5c4cc(C(C)=O)n5C4CC4)n3)nc2)CC1` [Compound I-41, N-(5-(4-ethylpiperazine-1-methyl)-pyridin-2-yl)-5-fluoro-4-(6-acetyl-7-cyclopropyl-7H-pyrrolo[2,3-d]pyrimidin-4-yl)pyrimidin-2-amine], the half-inhibitory concentration (IC50) on CDK6 and at CDK4 was no more than 20 nM each time.
For the molecule `CCN1CCN(Cc2ccc(Nc3ncc(F)c(-c4ccc5nnc(C(C)C)n5c4)n3)nc2)CC1` [Compound I-6, N-(5-(4-ethylpiperazine-1-methyl)-pyridin-2-yl)-5-fluoro-4-(3-isopropyl-[1,2,4]triazolo[4,3-a]pyridin-6-yl)pyrimidin-2-amine], the 50% inhibitory concentration (IC50) was 20 to 100 nM on CDK6 and no more than 20 nM on CDK4.
For `CN(C)C(=O)c1c2ccc(-c3nc(Nc4ccc(N5CCNCC5)cn4)ncc3F)c(F)c2nn1C` [Compound I-31, N-(5-(piperazin-1-yl)-pyridin-2-yl)-5-fluoro-4-(2-methyl-3-formic acid diformamido-2H-7-fluoro-indazol-6-yl)pyrimidin-2-amine], in that order: no more than 20 nM and no more than 20 nM.
The corresponding values for `CC(C)n1ccc2cc(-c3nc(Nc4ccc(N5CCNCC5)cn4)ncc3F)ccc21` [Compound I-2, N-(5-(piperazin-1-yl)-pyridin-2-yl)-5-fluoro-4-(1-isopropyl-1H-indol-5-yl)pyrimidine 2-amine] are no more than 20 nM and no more than 20 nM.
For `CCN1CCN(Cc2ccc(Nc3ncc(F)c(-c4ncc5nc(C)n(C(C)C)c5n4)n3)nc2)CC1` [Compound I-9, N-(5-(4-ethylpiperazine-1-methyl)-pyridin-2-yl)-5-fluoro-4-(9-isopropyl-8-methyl-9H-purin-2-yl)pyrimidin-2-amine], in that order: 20 to 100 nM and 20 to 100 nM.
For `CCN1CCN(Cc2ccc(Nc3ncc(F)c(-c4ccc5nnc(C6CC6)n5c4)n3)nc2)CC1` [Compound I-36, N-(5-(4-ethylpiperazin-1-methyl)-pyridin-2-yl)-5-fluoro-4-(3-cyclopropyl-[1,2,4]triazolo[4,3-a]pyridin-6-yl)pyrimidin-2-amine], the IC50 at CDK6 and at CDK4 was no more than 20 nM in each case.
As for `CC(=O)c1cc2cc(-c3nc(Nc4ccc(N5CCNCC5)cn4)ncc3F)ccc2n1C(C)C` [Compound I-23, N-(5-(piperazin-1-yl)-pyridin-2-yl)-5-fluoro-4-(1-isopropyl-2-acetyl-1H-indol-5-yl)pyrimidin-2-amine], the half-inhibitory concentration (IC50) at CDK6 and at CDK4 was no more than 20 nM each time.
For `CCN1CCN(Cc2ccc(Nc3ncc(F)c(-c4ncnc5c4cc(C)n5C4CCCC4)n3)nc2)CC1` [Compound I-11, N-(5-(4-ethylpiperazine-1-methyl)-pyridin-2-yl)-5-fluoro-4-(6-methyl-7-cyclopentyl-7H-pyrrolo[2,3-d]pyrimidin-4-yl)pyrimidin-2-amine], the results for the IC50 at CDK6 and at CDK4 were 100 to 500 nM and no more than 20 nM, respectively.
The corresponding values for `CC(C)n1c(C(=O)N(C)C)cc2nc(-c3nc(Nc4ccc(N5CCNCC5)cn4)ncc3F)ccc21` [Compound I-25, N-(5-(piperazin-1-yl)-pyridin-2-yl)-5-fluoro-4-(1-isopropyl-2-formic acid diformamido-1H-4-azaindol-5-yl)pyrimidin-2-amine] are no more than 20 nM and no more than 20 nM.
The corresponding values for `CCN1CCN(Cc2ccc(Nc3ncc(F)c(-c4ccc5nnc(C(F)(F)F)n5c4)n3)nc2)CC1` [Compound I-33, N-(5-(4-ethylpiperazine-1-methyl)-pyridin-2-yl)-5-fluoro-4-(3-trifluoromethyl-[1,2,4]triazolo[4,3-a]pyridin-6-yl)pyrimidin-2-amine] are no more than 20 nM and no more than 20 nM.
`Cc1nc2cnc(-c3nc(Nc4ccc(N5CCNCC5)cn4)ncc3F)nc2n1C(C)C` [Compound I-8, N-(5-(piperazin-1-yl)-pyridin-2-yl)-5-fluoro-4-(9-isopropyl-8-methyl-9H-purin-2-yl)pyrimidin-2-amine]: the IC50 was 20 to 100 nM on CDK6 and no more than 20 nM at CDK4.
On to `CCN1CCN(Cc2ccc(Nc3ncc(F)c(-c4ccc5c(cc(C(=O)N(C)C)n5C(C)C)c4F)n3)nc2)CC1` [Compound I-27, N-(5-(4-ethylpiperazine-1-methyl)-pyridin-2-yl)-5-fluoro-4-(1-isopropyl-2-formic acid diformamido-1H-4-fluoroindol-5-yl)pyrimidin-2-amine], for which the half-inhibitory concentration (IC50) on CDK6 and on CDK4 was no more than 20 nM each time.
Regarding `CC(=O)c1cn(C2CCCCCC2)c2ccc(-c3nc(Nc4ccc(CN5CCN(C6CCCC6)CC5)cn4)ncc3F)cc12` [Compound I-20, N-(5-(4-cyclopentylpiperazin-1-methyl)-pyridin-2-yl)-5-fluoro-4-(1-cycloheptyl-3-acetyl-1H-indol-5-yl)pyrimidin-2-amine], the IC50 on CDK6 and at CDK4 was no more than 20 nM each time.
With `CCN1CCN(Cc2ccc(Nc3ncc(F)c(-c4ccc5c(ccn5C(C)C)c4)n3)nc2)CC1` [Compound I-1, N-(5-(4-ethylpiperazine-1-methyl)-pyridin-2-yl)-5-fluoro-4-(1-isopropyl-1H-indol-5-yl)-pyrimidin-2-amine], the half-maximal inhibitory concentration (IC50) on CDK6 and at CDK4 was no more than 20 nM in each case.
On to `CC(C)n1c(C(=O)N(C)C)cc2c(F)c(-c3nc(Nc4ccc(N5CCNCC5)cn4)ncc3F)ccc21` [Compound I-28, N-(5-(piperazin-1-yl)-pyridin-2-yl)-5-fluoro-4-(1-isopropyl-2-formic acid diformamido-1H-4-fluoroindol-5-yl)pyrimidin-2-amine], for which the IC50 at CDK6 is 20 to 100 nM; on CDK4 it was no more than 20 nM.
In the case of `CCN1CCN(c2ccc(Nc3ncc(F)c(-c4ncc5nc(C)n(C(C)C)c5n4)n3)nc2)CC1` [Compound I-48, N-(5-(4-ethylpiperazin-1-yl)-pyridin-2-yl)-5-fluoro-4-(9-isopropyl-8-methyl-9H-purin-2-yl)pyrimidin-2-amine], the IC50 on CDK6 was 100 to 500 nM; on CDK4, no more than 20 nM.
Regarding `Fc1cnc(Nc2ccc(CN3CCN(C4CCCCCC4)CC3)cn2)nc1-c1ccc2c(c1)c(C1CC1)cn2C1CCC1` [Compound I-18, N-(5-(4-cycloheptylpiperazine-1-methyl)-pyridin-2-yl)-5-fluoro-4-(1-cyclobutyl-3-cyclopropyl-1H-indol-5-yl)pyrimidin-2-amine], the IC50 at CDK6 and on CDK4 was no more than 20 nM each time.
On to `Cc1c2ccc(-c3nc(Nc4ccc(N5CCNCC5)cn4)ncc3F)cc2nn1C` [Compound I-5, N-(5-(piperazin-1-yl)-pyridin-2-yl)-5-fluoro-4-(2,3-dimethyl-2H-indazol-6-yl)pyrimidin-2-amine], for which the IC50 at CDK6 and at CDK4 was no more than 20 nM each time.
For `CN1CCN(c2ccc(Nc3ncc(F)c(-c4ncc5nc(C(=O)N(C)C)n(C6CCCC6)c5n4)n3)nc2)CC1` [Compound I-37], the concentration for half-maximal inhibition (IC50) is 20 to 100 nM at CDK6 and no more than 20 nM on CDK4.
As to `CCN1CCN(Cc2ccc(Nc3ncc(F)c(-c4ccc5c(c4)c(C(C)=O)cn5C4CCCC4)n3)nc2)CC1` [Compound I-4, N-(5-(4-ethylpiperazine-1-methyl)-pyridin-2-yl)-5-fluoro-4-(1-cyclopentyl-3-acetyl-1H-indol-5-yl)pyrimidin-2-amine], the IC50 is 20 to 100 nM on CDK6 and no more than 20 nM on CDK4.
On to `CCN1CCN(Cc2ccc(Nc3ncc(F)c(-c4ccc5c(c4)cc(C(C)=O)n5C(C)C)n3)nc2)CC1` [Compound I-24, N-(5-(4-ethylpiperazine-1-methyl)-pyridin-2-yl)-5-fluoro-4-(1-isopropyl-2-acetyl-1H-indol-5-yl)pyrimidin-2-amine], for which the concentration for half-maximal inhibition (IC50) on CDK6 and on CDK4 was no more than 20 nM throughout.
On to `CCN1CCN(Cc2ccc(Nc3ncc(F)c(-c4ccc5c(c(C)nn5C5CCCC5)c4F)n3)nc2)CC1` [Compound I-45, N-(5-(4-ethylpiperazine-1-methyl)-pyridin-2-yl)-5-fluoro-4-(1-cyclopentyl-3-methyl-4-fluoro-1H-indazol-5-yl)pyrimidin-2-amine], for which the half-inhibitory concentration (IC50) at CDK6 and on CDK4 was 20 to 100 nM in each case.
